Each molecule was assayed against Gamma-aminobutyric acid type B receptor subunit 1/2 (UniProt O88871+Q9Z0U4) (assay: Binding Assay).
Method: The samples were incubated at room temperature for 60 minutes on a shaker. The incubation was stopped by rapid vacuum filtration over glass-fiber filter plates (UniFilter-96 well, GF/B membrane plates, PerkinElmer) using a 96-well plate harvester (TOMTEK Harvester). The UniFilter plate was washed five times with ice-cold wash buffer (50 mM Tris-HCl buffer, pH 7.7, 10 mM MgCl2, and 100 mM NaCl. After filtration the plate was dried for 90 minutes at 55° C. The plates were closed on the bottom with black sealing membranes, and liquid scintillation cocktail (35 μL, Betaplate Scint, PerkinElmer) was added to each well. After sealing the top of the plate, an additional incubation step of 90 minutes at room temperature followed before measuring the plate. The amount of membrane-bound [35S]GTPgS was measured using a 96-well plate reader (Microbeta , PerkinElmer).

Chain of Gamma-aminobutyric acid type B receptor subunit 1/2 (Q9Z0U4 whole entry): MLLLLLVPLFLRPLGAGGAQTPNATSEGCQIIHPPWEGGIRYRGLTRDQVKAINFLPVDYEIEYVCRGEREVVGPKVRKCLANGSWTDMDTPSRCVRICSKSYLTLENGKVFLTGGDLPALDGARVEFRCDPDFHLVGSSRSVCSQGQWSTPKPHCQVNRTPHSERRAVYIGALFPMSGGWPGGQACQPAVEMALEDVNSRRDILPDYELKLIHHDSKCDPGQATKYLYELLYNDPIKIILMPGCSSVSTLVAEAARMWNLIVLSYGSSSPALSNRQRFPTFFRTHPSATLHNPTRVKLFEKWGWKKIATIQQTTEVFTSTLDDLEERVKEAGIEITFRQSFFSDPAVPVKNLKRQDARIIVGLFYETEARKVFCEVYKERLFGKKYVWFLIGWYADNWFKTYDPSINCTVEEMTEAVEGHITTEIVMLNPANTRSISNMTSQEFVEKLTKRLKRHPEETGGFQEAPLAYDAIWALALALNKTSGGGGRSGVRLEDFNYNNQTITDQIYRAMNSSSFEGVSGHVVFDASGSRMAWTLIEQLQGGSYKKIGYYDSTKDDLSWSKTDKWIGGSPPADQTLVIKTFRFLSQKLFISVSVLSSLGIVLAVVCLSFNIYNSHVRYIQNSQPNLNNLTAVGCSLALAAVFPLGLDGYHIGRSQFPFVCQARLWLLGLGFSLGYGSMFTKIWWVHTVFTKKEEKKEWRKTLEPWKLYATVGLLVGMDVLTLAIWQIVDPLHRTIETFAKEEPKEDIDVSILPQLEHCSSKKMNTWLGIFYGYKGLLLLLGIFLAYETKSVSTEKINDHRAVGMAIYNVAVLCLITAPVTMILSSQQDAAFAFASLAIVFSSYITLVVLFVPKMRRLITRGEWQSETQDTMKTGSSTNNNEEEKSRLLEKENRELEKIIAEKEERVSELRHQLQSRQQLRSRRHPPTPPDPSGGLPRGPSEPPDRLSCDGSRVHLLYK
Chain of Gamma-aminobutyric acid type B receptor subunit 1/2 (O88871 whole entry): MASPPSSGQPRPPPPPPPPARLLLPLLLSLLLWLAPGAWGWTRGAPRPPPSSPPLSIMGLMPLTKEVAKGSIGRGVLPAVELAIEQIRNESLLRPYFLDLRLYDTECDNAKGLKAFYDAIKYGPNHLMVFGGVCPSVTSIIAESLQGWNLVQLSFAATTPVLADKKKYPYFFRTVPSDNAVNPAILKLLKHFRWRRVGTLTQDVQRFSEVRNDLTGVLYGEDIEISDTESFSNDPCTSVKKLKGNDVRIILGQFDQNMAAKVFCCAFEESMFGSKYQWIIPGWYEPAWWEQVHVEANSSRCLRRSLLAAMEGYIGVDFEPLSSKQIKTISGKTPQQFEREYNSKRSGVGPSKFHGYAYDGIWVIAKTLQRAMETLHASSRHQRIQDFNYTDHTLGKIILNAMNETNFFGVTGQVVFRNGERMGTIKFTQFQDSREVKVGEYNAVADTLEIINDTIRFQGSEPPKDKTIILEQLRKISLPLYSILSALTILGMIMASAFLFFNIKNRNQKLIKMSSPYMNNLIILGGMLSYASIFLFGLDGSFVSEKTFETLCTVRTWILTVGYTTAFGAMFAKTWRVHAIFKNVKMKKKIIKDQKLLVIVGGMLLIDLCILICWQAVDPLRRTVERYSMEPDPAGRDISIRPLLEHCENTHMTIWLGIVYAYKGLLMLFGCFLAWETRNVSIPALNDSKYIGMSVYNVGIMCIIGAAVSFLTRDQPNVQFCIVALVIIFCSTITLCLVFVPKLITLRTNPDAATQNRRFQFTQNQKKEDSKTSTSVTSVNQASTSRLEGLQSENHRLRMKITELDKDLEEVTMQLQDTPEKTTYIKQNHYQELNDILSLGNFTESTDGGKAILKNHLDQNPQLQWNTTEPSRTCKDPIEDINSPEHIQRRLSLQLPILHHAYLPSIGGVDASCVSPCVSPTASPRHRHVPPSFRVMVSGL

Row | EC50 [µM] | SMILES
1 | 2.59 | CC(=O)Nc1cccc(-c2nn(Cc3ccc(Cl)cc3)c(=O)c3c(C(C)C)noc23)c1 [US10556914, Example 96]
2 | 3.54 | COc1ccc(OC)c(-c2nn(Cc3ccc(Cl)cc3)c(=O)c3c(C(C)C)noc23)c1 [US10556914, Example 13]
3 | > 10 | COc1c(NC(C)=O)cccc1-c1nn(C(C)c2ccc(Cl)cc2)c(=O)c2c(C)noc12 (stereo not drawn) [US10556914, Example 33]
